Test results published in patent publication US20230265151A1, “GIP/GLP1 CO-AGONIST COMPOUNDS” (priority 2020, published 2023).
Read-outs that look alike come from different tables or passages of the source. *1 amine or outer side, *2 acyl side, *3 side chain or, on linkers, in order; H or OH if unused. Where a SMILES comes first, the peptide text is derived from it. Side-chain parts run from the residue outwards. [ ]: non-standard residue; d: D form. The star is where a group is joined. αMePhe(2-F) = C[C@](N)(Cc1ccccc1F)C(=O)O; γGlu = O=C(O)[C@H](CCC(=O)[*:2])N[*:1]; C14 diacid = O=C(O)CCCCCCCCCCCCC(=O)*; αMeY = C[C@](N)(Cc1ccc(O)cc1)C(=O)O; αMeF = C[C@](N)(Cc1ccccc1)C(=O)O; 4Pal = N[C@@H](Cc1ccncc1)C(=O)O; αMeL = CC(C)C[C@](C)(N)C(=O)O; Lauroyl = CCCCCCCCCCCC(=O)*; Orn = NCCC[C@H](N)C(=O)O; AEEA = NCCOCCOCC(=O)O; Aib = CC(C)(N)C(=O)O

Legend:
Format in all cases: cell-based
hGIPR = target: T1, hGIPR (Homo sapiens, UniProt P48546); test: Functional cAMP formation (HTRF) in HEK-293 clonal cells expressing hGIPR, 0.1% bovine casein, without or with 1.0% human serum albumin; details: for Emax: read-out: hGIPR Emax, % ± SEM; for EC50: geometric mean, read-out: hGIPR EC50, nM (SEM, n)
T1 construct: expressed in transfected cells
T1 sequence (P48546 22-466): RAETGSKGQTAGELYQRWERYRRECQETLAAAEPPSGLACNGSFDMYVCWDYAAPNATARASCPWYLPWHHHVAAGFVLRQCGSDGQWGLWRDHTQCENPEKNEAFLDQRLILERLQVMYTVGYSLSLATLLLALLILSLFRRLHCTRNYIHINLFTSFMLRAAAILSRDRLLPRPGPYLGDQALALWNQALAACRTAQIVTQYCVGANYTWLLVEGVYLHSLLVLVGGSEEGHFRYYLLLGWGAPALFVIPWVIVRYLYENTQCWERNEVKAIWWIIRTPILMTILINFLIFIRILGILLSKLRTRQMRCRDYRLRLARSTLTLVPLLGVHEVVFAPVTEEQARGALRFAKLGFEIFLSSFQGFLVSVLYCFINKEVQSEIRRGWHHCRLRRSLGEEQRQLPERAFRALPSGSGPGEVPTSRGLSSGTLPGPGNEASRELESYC
In short: (§1)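 Readings of the HTRF 665/620 nm ratio, which falls as cAMP rises, were converted to nM cAMP using a standard curve after 30 min peptide exposure at 37° C.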

hGLP-1R = hGLP-1R (Homo sapiens, UniProt P43220); test: Functional cAMP formation (HTRF) in HEK-293 clonal cells expressing hGLP-1R, 0.1% bovine casein, without or with 1.0% human serum albumin; design: expressed in transfected cells; details: for Emax: read-out: hGLP-1R Emax, % ± SEM; for EC50: read-out: hGLP-1R EC50, nM (SEM, n)
hGLP-1R, sequence (P43220 24-463): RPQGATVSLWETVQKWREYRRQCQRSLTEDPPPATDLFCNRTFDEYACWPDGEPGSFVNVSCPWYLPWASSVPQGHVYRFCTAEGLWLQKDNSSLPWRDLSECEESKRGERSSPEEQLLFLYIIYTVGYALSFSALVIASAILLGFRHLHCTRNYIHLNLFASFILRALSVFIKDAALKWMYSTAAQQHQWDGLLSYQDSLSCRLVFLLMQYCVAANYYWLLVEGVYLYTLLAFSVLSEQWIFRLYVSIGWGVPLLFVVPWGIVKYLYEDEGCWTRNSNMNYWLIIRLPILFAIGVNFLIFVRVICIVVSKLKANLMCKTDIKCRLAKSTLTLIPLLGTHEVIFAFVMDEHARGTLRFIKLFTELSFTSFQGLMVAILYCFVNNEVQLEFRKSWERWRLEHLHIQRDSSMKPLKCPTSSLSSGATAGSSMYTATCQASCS
In short: as §1

hGCGR = target: T2, hGCGR (Homo sapiens, UniProt P47871); test: Functional cAMP formation (HTRF) in HEK-293 clonal cells expressing hGCGR, 0.1% bovine casein, without or with 1.0% human serum albumin; details: read-out: hGCGR EC50, nM (SEM, n)
T2 construct: expressed in transfected cells
T2 sequence (P47871 26-477): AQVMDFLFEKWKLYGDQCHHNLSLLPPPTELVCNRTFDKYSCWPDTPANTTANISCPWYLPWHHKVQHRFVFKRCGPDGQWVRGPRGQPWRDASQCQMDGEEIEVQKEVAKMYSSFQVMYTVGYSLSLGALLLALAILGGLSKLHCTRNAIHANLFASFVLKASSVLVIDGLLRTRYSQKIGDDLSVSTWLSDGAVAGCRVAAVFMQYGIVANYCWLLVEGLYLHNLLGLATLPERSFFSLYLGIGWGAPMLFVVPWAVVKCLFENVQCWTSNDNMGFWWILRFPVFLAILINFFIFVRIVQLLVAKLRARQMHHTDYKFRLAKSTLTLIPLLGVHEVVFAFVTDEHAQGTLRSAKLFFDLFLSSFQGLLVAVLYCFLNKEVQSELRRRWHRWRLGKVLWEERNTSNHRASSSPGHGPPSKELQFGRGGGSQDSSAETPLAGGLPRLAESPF
In short: as §1

[1] = HEK293, cAMP, 37° C., 0.1% bovine casein and 1.0% human serum albumin, percent of maximal response to GIP(1-42)NH2
[2] = cAMP, 37° C., 0.1% bovine casein (no human serum albumin)
[3] = HEK293, cAMP, 37° C., 0.1% bovine casein and 1.0% human serum albumin, percent of maximal response to GLP-1(7-36)NH2
[4] = cAMP, 37° C., 0.1% bovine casein (no human serum albumin), geometric mean
[5] = cAMP, 37° C., 0.1% bovine casein and 1.0% human serum albumin, geometric mean (SEM, n)
[6] = cAMP, incubated at 37° C., 0.1% bovine casein (no human serum albumin)
[7] = 0.1% bovine casein and 1.0% human serum albumin, 37° C., geometric mean
[8] = cAMP, incubated at 37° C., 0.1% bovine casein (no human serum albumin), geometric mean

Row | SMILES | Emax (hGIPR; [1]) [%] | EC50 (hGIPR; [2]) [nM] | Emax (hGLP-1R; [3]) [%] | Emax (hGLP-1R; HEK293, cAMP, 37° C., 0.1% bovine casein, percent of maximal response to GLP-1(7-36)NH2, arithmetic mean) [%] | EC50 (hGLP-1R; [4]) [nM] | EC50 (hGLP-1R; [5]) [nM] | EC50 (hGCGR; [4]) [nM] | EC50 (hGCGR; [5]) [nM] | Emax (hGIPR; HEK293, 0.1% bovine casein and 1.0% human serum albumin, 37° C., percent of maximal response to GIP(1-42)NH2) [%] | Emax (hGIPR; HEK293, percent of maximal response to GIP(1-42)NH2, 37° C., 0.1% bovine casein, arithmetic mean) [%] | EC50 (hGIPR; [6]) [nM] | EC50 (hGLP-1R; [7]) [nM] | EC50 (hGLP-1R; [8]) [nM] | EC50 (hGCGR; [7]) [nM] | EC50 (hGCGR; [8]) [nM] | EC50 (hGIPR; 0.1% bovine casein and 1.0% human serum albumin, 37° C.) [nM] | Emax (hGLP-1R; HEK293, 0.1% bovine casein and 1.0% human serum albumin, 37° C., percent of maximal response to GLP-1(7-36)NH2) [%] | Emax (hGLP-1R; HEK293, percent of maximal response to GLP-1(7-36)NH2, 37° C., 0.1% bovine casein, arithmetic mean) [%]
1 | CC[C@H](C)[C@H](NC(=O)[C@H](CC(C)C)NC(=O)[C@](C)(Cc1ccc(O)cc1)NC(=O)[C@H](CCCCNC(=O)COCCOCCNC(=O)COCCOCCNC(=O)CC[C@H](NC(=O)CCCCCCCCCCCCC(=O)O)C(=O)O)NC(=O)[C@@H](NC(=O)[C@H](Cc1ccccc1)NC(=O)[C@H](CCC(=O)O)NC(=O)C(C)(C)NC(=O)[C@H](CCC(N)=O)NC(=O)[C@H](C)NC(=O)[C@H](CCC(N)=O)NC(=O)[C@H](CCCN)NC(=O)[C@H](CC(=O)O)NC(=O)[C@H](CC(C)C)NC(=O)[C@](C)(CC(C)C)NC(=O)[C@@H](NC(=O)C(C)(C)NC(=O)[C@@H](NC(=O)[C@H](CC(=O)O)NC(=O)[C@H](CO)NC(=O)[C@@H](NC(=O)[C@](C)(Cc1ccccc1F)NC(=O)[C@@H](NC(=O)CNC(=O)[C@H](CCC(=O)O)NC(=O)C(C)(C)NC(=O)[C@@H](N)Cc1ccc(O)cc1)[C@@H](C)O)[C@@H](C)O)C(C)C)[C@@H](C)CC)[C@@H](C)CC)C(=O)N[C@@H](CCCCNC(=O)COCCOCCNC(=O)COCCOCCNC(=O)CC[C@H](NC(=O)CCCCCCCCCCCCC(=O)O)C(=O)O)C(=O)NCC(=O)NCC(=O)N1CCC[C@H]1C(=O)N[C@@H](CO)C(=O)N[C@@H](CO)C(=O)NCC(=O)N[C@@H](C)C(=O)N1CCC[C@H]1C(=O)N1CCC[C@H]1C(=O)N1CCC[C@H]1C(=O)N[C@@H](CO)C(N)=O [Example 390] (H-Y[Aib]EGT[αMePhe(2-F)]TSDV[Aib]I[αMeL]LD[Orn]QAQ[Aib]EFIK([AEEA-AEEA-γGlu-C14 diacid])[αMeY]LIK([AEEA-AEEA-γGlu-C14 diacid])GGPSSGAPPPS-NH2) | 89.3 | 0.0187 | 94.6 | 97.7 | 0.209 | 24.3 | > 9950 | > 9950 | – | – | – | – | – | – | – | – | – | –
2 | CC[C@H](C)[C@H](NC(=O)[C@H](CC(C)C)NC(=O)[C@](C)(Cc1ccc(O)cc1)NC(=O)[C@@H](CCC(=O)O)NC(=O)[C@@H](NC(=O)[C@H](Cc1ccccc1)NC(=O)[C@H](CCC(=O)O)NC(=O)C(C)(C)NC(=O)[C@H](CCC(N)=O)NC(=O)[C@H](C)NC(=O)[C@H](CCCCNC(=O)COCCOCCNC(=O)COCCOCCNC(=O)CC[C@H](NC(=O)CCCCCCCCCCCCC(=O)O)C(=O)O)NC(=O)[C@H](CCCN)NC(=O)[C@H](CC(=O)O)NC(=O)[C@H](CC(C)C)NC(=O)[C@](C)(CC(C)C)NC(=O)[C@@H](NC(=O)[C@H](CO)NC(=O)[C@H](Cc1ccc(-c2ccccc2)cc1)NC(=O)[C@H](CC(=O)O)NC(=O)[C@H](CO)NC(=O)[C@@H](NC(=O)[C@](C)(Cc1ccccc1F)NC(=O)[C@@H](NC(=O)CNC(=O)[C@H](CCC(=O)O)NC(=O)C(C)(C)NC(=O)[C@@H](N)Cc1ccc(O)cc1)[C@@H](C)O)[C@@H](C)O)[C@@H](C)CC)[C@@H](C)CC)C(=O)N[C@@H](CCC(=O)O)C(=O)NCC(=O)NCC(=O)N[C@@H](CCCCNC(=O)COCCOCCNC(=O)COCCOCCNC(=O)CC[C@H](NC(=O)CCCCCCCCCCCCC(=O)O)C(=O)O)C(=O)N[C@@H](CO)C(=O)N[C@@H](CO)C(=O)NCC(=O)N[C@@H](C)C(=O)N1CCC[C@H]1C(=O)N1CCC[C@H]1C(=O)N1CCC[C@H]1C(=O)N[C@@H](CO)C(N)=O [Example 55] | – | – | – | – | – | – | – | – | 85.7 ± 0.885 | 97.1 ± 2.16 | 0.0207 | 70.5 | 0.154 | > 9950 | > 9950 | – | – | –
3 | CCCCCCCCCCCC(=O)N[C@@H](CCC(=O)NCCOCCOCC(=O)NCCOCCOCC(=O)NCCCC[C@H](NC(=O)[C@H](CO)NC(=O)[C@@H]1CCCN1C(=O)[C@@H]1CCCN1C(=O)[C@@H]1CCCN1C(=O)[C@H](C)NC(=O)CNC(=O)[C@H](CO)NC(=O)[C@H](CO)NC(=O)[C@@H]1CCCN1C(=O)CNC(=O)CNC(=O)[C@H](CCC(=O)O)NC(=O)[C@@H](NC(=O)[C@H](CC(C)C)NC(=O)[C@](C)(Cc1ccc(O)cc1)NC(=O)[C@@H](CCC(=O)O)NC(=O)[C@@H](NC(=O)[C@](C)(Cc1ccccc1)NC(=O)[C@H](CCC(=O)O)NC(=O)C(C)(C)NC(=O)[C@H](CCC(N)=O)NC(=O)[C@H](C)NC(=O)[C@H](CCCCNC(=O)COCCOCCNC(=O)COCCOCCNC(=O)CC[C@H](NC(=O)CCCCCCCCCCC)C(=O)O)NC(=O)[C@H](CCCN)NC(=O)[C@H](CC(=O)O)NC(=O)[C@H](CC(C)C)NC(=O)[C@](C)(CC(C)C)NC(=O)[C@@H](NC(=O)C(C)(C)NC(=O)[C@H](Cc1ccncc1)NC(=O)[C@H](CC(=O)O)NC(=O)[C@H](CO)NC(=O)[C@@H](NC(=O)[C@](C)(Cc1ccccc1F)NC(=O)[C@@H](NC(=O)CNC(=O)[C@H](CCC(=O)O)NC(=O)C(C)(C)NC(=O)[C@@H](N)Cc1ccc(O)cc1)[C@@H](C)O)[C@@H](C)O)[C@@H](C)CC)[C@@H](C)CC)[C@@H](C)CC)C(N)=O)C(=O)O [Example 431] (H-Y[Aib]EGT[αMePhe(2-F)]TSD[4Pal][Aib]I[αMeL]LD[Orn]K([AEEA-AEEA-γGlu-Lauroyl])AQ[Aib]E[αMeF]I[dE][αMeY]LIEGGPSSGAPPPSK([AEEA-AEEA-γGlu-Lauroyl])-NH2) | 98 | 0.0097 | 91.6 | – | 0.134 | – | > 9950 | > 9950 | – | – | – | – | – | – | – | – | – | –
4 | CC[C@H](C)[C@H](NC(=O)[C@H](CC(C)C)NC(=O)[C@](C)(Cc1ccc(O)cc1)NC(=O)[C@@H](CCC(=O)O)NC(=O)[C@@H](NC(=O)[C@H](Cc1ccccc1F)NC(=O)[C@H](CCC(=O)O)NC(=O)C(C)(C)NC(=O)[C@H](CCC(N)=O)NC(=O)[C@H](C)NC(=O)[C@H](CCCCNC(=O)COCCOCCNC(=O)COCCOCCNC(=O)CC[C@H](NC(=O)CCCCCCCCCCCCC(=O)O)C(=O)O)NC(=O)[C@H](CCCN)NC(=O)[C@H](CC(=O)O)NC(=O)[C@H](CC(C)C)NC(=O)[C@](C)(CC(C)C)NC(=O)[C@@H](NC(=O)[C@H](CO)NC(=O)[C@H](Cc1ccncc1)NC(=O)[C@H](CC(=O)O)NC(=O)[C@H](CO)NC(=O)[C@@H](NC(=O)[C@](C)(Cc1ccccc1F)NC(=O)[C@@H](NC(=O)CNC(=O)[C@H](CCC(=O)O)NC(=O)C(C)(C)NC(=O)[C@@H](N)Cc1ccc(O)cc1)[C@@H](C)O)[C@@H](C)O)[C@@H](C)CC)[C@@H](C)CC)C(=O)N[C@@H](CCC(=O)O)C(=O)NCC(=O)NCC(=O)N[C@@H](CCCCNC(=O)COCCOCCNC(=O)COCCOCCNC(=O)CC[C@H](NC(=O)CCCCCCCCCCCCC(=O)O)C(=O)O)C(=O)N[C@@H](CO)C(=O)N[C@@H](CO)C(=O)NCC(=O)N[C@@H](C)C(=O)N1CCC[C@H]1C(=O)N1CCC[C@H]1C(=O)N1CCC[C@H]1C(=O)N[C@@H](CO)C(N)=O [Example 63] | – | – | – | – | – | – | – | – | – | – | 0.0176 | – | – | > 9950 | > 9950 | 0.771 | 98 | 90.6
